Reference: patent US8906865B2, “Treatment of inflammation and/or endotoxic shock” (ISIS Innovation Limited, priority 2007, dated 2014)

Test system: C57B16/J mice, zymosan-induced peritonitis
Assay: Zymosan-induced peritonitis in mice
Format: in vivo, mouse
Set-up: Reduction of MCP-1 in peritoneal lavage fluid (FIG. 7F) / Reduction of KC in peritoneal lavage fluid (FIG. 7F) / Reduction of TNFα in peritoneal lavage fluid (FIG. 7F) / Reduction of IL-1β in peritoneal lavage fluid (FIG. 7F) / Reduction of IL-6 in peritoneal lavage fluid (FIG. 7F): concentration or dose not given beside the values
Conditions: for Protection in vivo as judged by monocyte and neutrophil levels (FIG. 7C-D): same dose and time as C15
Procedure: FIGS. 7A and 7B—C57B16/J mice were dosed i.p with PBS or chemerin15 (0.32 ng/kg) followed by injection with PBS or zymosan (10 μg, ˜2×10^6 particles per cavity) 1 h later. Peritoneal exudate cells were harvested by peritoneal lavage at multiple time points (FIGS. 7A and 7B; 5-6 mice/treatment) or after 4 h (FIGS. 7C-7E; 6-15 mice/group). FIGS. 7C-7E—total cell numbers in lavage fluid were quantified and cellular composition (neutrophils vs mononuclear phagocytes) determined using FACS analysis. Cells were blocked with 2.4G2 anti-FcγRII/III and stained with Ly-6G-PE and 7/4-FITC. Gates were constructed around two populations, the neutrophils (N; 7/4high, Ly-6Ghigh) and inflammatory monocytes (Mo; 7/4high, Ly-6Glow). FIG. 7E—representative FACS plots are shown for each treatment group at 4 h post-zymosan. FIG. 7F—peritoneal lavage fluid was assayed for TNFα and KC by ELISA and IL-6, IL-1β and MCP-1 by Luminex assay. C15; Chemerin15, Z; Zymosan. ***, P<0.001; **, P<0.01 ** relative to zymosan-treated animals (Student's t test). FIG. 7G—Mice (6-8/treatment) were dosed i.p with zymosan (10 μg) and with C15 (8 pg) or PBS either 1 h beforehand (C15 pre-treatment) or 2 h later (C15 post-treatment). Peritoneal lavage was carried out 4 h post-zymosan challenge. Reference in this figure to the peptide C15 refers to the peptide described previously as C15m;
More specifically, male C57B16/J mice (8-12 weeks) were injected intra-peritoneally with 0.5 ml PBS or 0.5 ml Chemerin15-mouse (0.32 ng/kg) followed by injection with 0.5 ml PBS or Zymosan (2×10^6 particles per cavity) an hour later. After 4 hours animals were sacrificed and peritoneal cavities washed with 5 ml PBS-3 mM EDTA. Total cell counts were obtained using Trypan blue exclusion test. For determination of cellular composition (Neutrophils vs mononuclear phagocytes), cells were blocked with 2.4G2 mAB for 5 mins and stained with PE-conjugated anti-mouse Ly-6G and FITC-conjugated anti-mouse 7/4 mAB for 10 mins. Cells were fixed in 1% formaldehyde prior to FACS analysis with CellQuest software. Gates were constructed around two populations, the neutrophils (N; 7/4^high, Ly-6G^high) and inflammatory monocytes (Mo; 7/4^high). C15 refers to Chemerin15-mouse. Z refers to Zymosan. p<0.01 **; p<0.05 * relative to Zymosan-treated.
Neutrophil (7/4^high, Ly-6G^high), monocyte (7/4^high, Ly-6G^low) and resident macrophage populations (7/4^low, Ly-6G^low) were determined according to Gordon S and Taylor P R Nat Rev Immunol. 2005; 5(12):953; Taylor P R et al. Eur J Immunol. August 2003; 33(8):2090-2097; and Taylor P R et al. Eur J Immunol. July 2005; 35(7):2163-2174.
The above result was further investigated. To determine the anti-inflammatory properties of the C15 peptide in vivo a time-course experiment was performed extending over 48 h. Neutrophil (7/4high, Ly-6Ghigh) and monocyte (7/4high, Ly-6Glow) populations in peritoneal lavage fluid were determined by FACS analysis according to published protocols (Taylor, P. R. et al., (2005). Eur J Immunol 35:2163-2174; Taylor, P. R., (2003). Eur J Immunol 33:2090-2097). Administration of zymosan into the mouse peritoneal cavity produced a time-dependent extravasation of inflammatory cells into the peritoneal cavity, which followed the typical profile of an acute inflammatory response (FIG. 7A-B, solid line). Neutrophils were the first leukocytes to infiltrate the cavity, detectable at 2 h post-zymosan with peak neutrophilia occurring at 4 h (1.95×10^6 cells). Monocyte influx into the inflamed peritoneal cavity was first detectable after 4 h (0.69×10^6 cells), peaking at 24 h post-zymosan injection (1.25×10^6 cells) and declining thereafter. Pre-treatment with C15 at a dose of 8 pg/mouse (≈0.32 ng/kg) 1 h prior to zymosan challenge brought the peak neutrophilia forward to 2 h with approximately 50% the magnitude of that of zymosan challenged mice (reduced from 1.25×10^6 to 0.62×10^6 cells; FIG. 7A, dotted line). […]

[1] = 8 pg/mouse 1 h before zymosan, 4 h post-zymosan
[2] = 0.32 ng/kg (8 pg/mouse) i.p. 1 h before zymosan, 4 h
[3] = C15 2 h post-zymosan, lavage 4 h post-zymosan

GLFHDQAGPPAGYEF (Scrambled C15) [C15-S, control peptide, scrambled C15, reference compound]
Protection in vivo as judged by monocyte and neutrophil levels (FIG. 7C-D): not be protective

AGEDPHGYFLPGQFA (listed as Mus sp.) [C15]
Suppression of neutrophil infiltration (FIG. 7A) (8 pg/mouse 1 h before zymosan, 2 h post-zymosan): 50% | Suppression of neutrophil infiltration (FIG. 7A) [1]: 66% | Suppression of peritoneal monocytes (FIG. 7B) [1]: 63% | Suppression of peritoneal monocytes (FIG. 7B) (8 pg/mouse 1 h before zymosan, 8 h post-zymosan): 61% | Suppression of neutrophil infiltration (FIG. 7A) (8 pg/mouse 1 h before zymosan, 24 h post-zymosan): 50% | Suppression of peritoneal monocytes (FIG. 7B) (8 pg/mouse 1 h before zymosan, 48 h post-zymosan): 64% | Peritoneal neutrophils at 2 h (peak neutrophilia under C15) (8 pg/mouse 1 h before zymosan, zymosan alone 1.25×10^6): 0.62×10^6 cells | Time of peak neutrophilia (8 pg/mouse 1 h before zymosan, zymosan alone 4 h): 2 h | Reduction of Zymosan-elicited monocyte recruitment (FIG. 6) [2]: 42% | Reduction of Zymosan-elicited neutrophil recruitment (FIG. 6) [2]: 52% | Levels of TNFα in zymosan-treated mice (FIG. 6) (0.32 ng/kg i.p. 1 h before zymosan): reduced | Rate of monocyte influx into the inflamed cavity (2-4 h post-zymosan, zymosan alone 0.51×10^6/h): 180000 h⁻¹ | Reduction of IL-1β in peritoneal lavage fluid (FIG. 7F) (4 h post-zymosan): 67% | Reduction of IL-6 in peritoneal lavage fluid (FIG. 7F) (4 h post-zymosan): 67% | Reduction of KC in peritoneal lavage fluid (FIG. 7F) (4 h post-zymosan): 38% | Reduction of MCP-1 in peritoneal lavage fluid (FIG. 7F) (4 h post-zymosan): 59% | Reduction of TNFα in peritoneal lavage fluid (FIG. 7F) (4 h post-zymosan): 51% | Decrease in monocyte levels (FIG. 7D) (C15 1 h prior to zymosan, 4 h): 62% | Decrease in neutrophil numbers (FIG. 7C) (C15 1 h prior to zymosan, 4 h): 63% | Monocyte levels (FIG. 7D) (C15 1 h prior to zymosan, 4 h, zymosan alone 0.69×10^6): 0.30×10^6 | Neutrophil numbers (FIG. 7C) (C15 1 h prior to zymosan, 4 h, zymosan alone 1.9×10^6): 0.78×10^6 | Decrease in monocyte recruitment, C15 post-treatment (FIG. 7G) [3]: 42% | Decrease in neutrophil recruitment, C15 post-treatment (FIG. 7G) [3]: 60% | Monocyte number, C15 post-treatment (FIG. 7G) (C15 2 h post-zymosan, lavage 4 h post-zymosan, zymosan alone 0.69×10^6): 0.42×10^6 cells | Neutrophil number, C15 post-treatment (FIG. 7G) (C15 2 h post-zymosan, lavage 4 h post-zymosan, zymosan alone 1.9×10^6): 0.83×10^6 cells | Dose with efficacy against sterile peritonitis in mice (mouse, in vivo): 0.00032 µg/kg | Dose giving maximal reduction in zymosan-elicited neutrophil and monocyte recruitment (single i.p. dose, 4 h post-zymosan): 8 pg/mouse

AGEDPHGYALPGQAA (Mutant C15) [C15-M, control peptide, mutant C15 (F148A & F153A), reference compound]
Protection in vivo as judged by monocyte and neutrophil levels (FIG. 7C-D): not be protective
